Experimental data: the supplement of paper PMC4862054

Columns and labels:
Test in all cases: normalised viability (% of control), CellTiter-Blue; higher = more viable cells (about 100 = DMSO control)
Settings in all cases: incubation time: 72 h
[1] = test system: CAL-148
Outline: (§1)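 Seeded at 20 µl suspension per well onto compound-loaded 384-well plates, breast cancer cell lines were incubated 72 h. CellTiter-Blue fluorescence at 560/590 nm was then read, with each plate normalised to vehicle (100) and a positive kill control (0). Normalised viability is reported at a single listed concentration of the series.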

[2] = test system: CAL-120
Outline: as §1

[3] = test system: DU-4475
Experimental: (§2)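 DSRT, CellTiter-Blue viability, 72 h incubation. Signal is normalised to DMSO and benzethonium chloride controls. Value is the normalised response at dose 3.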

[4] = test system: MDA-MB-436
Experimental: as §2

[5] = test system: MDA-MB-468
Experimental: as §2

[6] = test system: HDQ-P1
Experimental: as §2

[7] = test system: Hs578T
Experimental: as §2

[8] = test system: MFM-223
Experimental: as §2

[9] = test system: MDA-MB-231
Experimental: as §2

[10] = test system: CAL-148; remark: listed apart in the source
Experimental: as §2

[11] = test system: CAL-51
Experimental: as §2

[12] = test system: MDA-MB-453
Experimental: as §2

[13] = test system: HCC1143
Experimental: as §2

[14] = test system: BT-474
Experimental: as §2

[15] = test system: BT-549
Experimental: as §2

[16] = test system: HCC1937
Experimental: as §2

[17] = test system: CAL-85-1
Experimental: as §2

[18] = test system: HCC1599
Experimental: as §2

[19] = test system: SK-BR-3
Experimental: as §2

[20] = test system: CAL-120; remark: listed apart in the source
Experimental: as §2

COc1cccc2cc(-c3nc([C@H]4CC[C@H](C(=O)O)CC4)n4ncnc(N)c34)[nH]c12 [OSI-027]
Settings | normalised viability [%]
[1], 3 nM | 86.7
[1], 30 nM | 87.5
[1], 100 nM | 82.2
[2], 10 nM | 101
[2], 1000 nM | 66.4
[2], 10000 nM | 12.5
[3], 10 nM | 105
[4], 100 nM | 74.1
[5], 100 nM | 84.4
[6], 10 nM | 78.5
[7], 100 nM | 84.1
[8], 100 nM | 73.7
[9], 100 nM | 72.1
[10], 10 nM | 92.6
[11], 10 nM | 95.4
[12], 10 nM | 80.9
[13], 100 nM | 119
[14], 100 nM | 95.1
[15], 100 nM | 71.9
[16], 100 nM | 84
[17], 10 nM | 92.8
[18], 100 nM | 88.9
[19], 100 nM | 48.6
[20], 100 nM | 91.9

OC[C@H]1O[C@@H](n2cnc3c2N=CNC[C@H]3O)C[C@@H]1O [Pentostatin]
Settings | normalised viability [%]
[1], 3 nM | 116
[1], 30 nM | 115
[1], 100 nM | 110
[2], 10 nM | 115
[2], 1000 nM | 103
[2], 10000 nM | 94.4
[3], 10 nM | 109
[4], 100 nM | 99.1
[5], 100 nM | 107
[6], 10 nM | 106
[7], 100 nM | 91.5
[8], 100 nM | 95.8
[9], 100 nM | 94.9
[10], 10 nM | 111
[11], 10 nM | 88.4
[12], 10 nM | 104
[13], 100 nM | 112
[14], 100 nM | 109
[15], 100 nM | 80.9
[16], 100 nM | 106
[17], 10 nM | 103
[18], 100 nM | 97.6
[19], 100 nM | 97.6
[20], 100 nM | 103

N#CC[C@H](C1CCCC1)n1cc(-c2ncnc3[nH]ccc23)cn1 [Ruxolitinib]
Settings | normalised viability [%]
[1], 3 nM | 92
[1], 30 nM | 82.4
[1], 100 nM | 94.1
[2], 10 nM | 102
[2], 1000 nM | 99
[2], 10000 nM | 94.5
[3], 10 nM | 101
[4], 100 nM | 94.5
[5], 100 nM | 100
[6], 10 nM | 74.4
[7], 100 nM | 79.2
[8], 100 nM | 93.2
[9], 100 nM | 90.8
[10], 10 nM | 102
[11], 10 nM | 84.9
[12], 10 nM | 93
[13], 100 nM | 107
[14], 100 nM | 107
[15], 100 nM | 74.5
[16], 100 nM | 81.1
[17], 10 nM | 96.4
[18], 100 nM | 99.3
[19], 100 nM | 85.1
[20], 100 nM | 97.5

C=CC[C@@H]1/C=C(\C)C[C@H](C)C[C@H](OC)[C@H]2O[C@@](O)(C(=O)C(=O)N3CCCC[C@H]3C(=O)O[C@H](/C(C)=C/[C@@H]3CC[C@@H](O)[C@H](OC)C3)[C@H](C)[C@@H](O)CC1=O)[C@H](C)C[C@@H]2OC [Tacrolimus]
Settings | normalised viability [%]
[1], 3 nM | 97.3
[1], 30 nM | 101
[1], 100 nM | 101
[2], 10 nM | 106
[2], 1000 nM | 103
[2], 10000 nM | 106
[3], 10 nM | 112
[4], 100 nM | 108
[5], 100 nM | 119
[6], 10 nM | 119
[7], 100 nM | 109
[8], 100 nM | 99.2
[9], 100 nM | 112
[10], 10 nM | 102
[11], 10 nM | 101
[12], 10 nM | 112
[13], 100 nM | 110
[14], 100 nM | 113
[15], 100 nM | 102
[16], 100 nM | 93.7
[17], 10 nM | 101
[18], 100 nM | 123
[19], 100 nM | 91.8
[20], 100 nM | 110

C=CCNC1=C2C[C@@H](C)C[C@H](OC)[C@H](O)[C@@H](C)/C=C(\C)[C@H](OC(N)=O)[C@@H](OC)/C=C\C=C(/C)C(=O)NC(=CC1=O)C2=O [Tanespimycin]
Settings | normalised viability [%]
[1], 3 nM | 97.8
[1], 30 nM | 89.7
[1], 100 nM | 38.5
[2], 10 nM | 74.2
[2], 1000 nM | 24.2
[2], 10000 nM | 16.4
[3], 10 nM | 106
[4], 100 nM | 26.3
[5], 100 nM | 109
[6], 10 nM | 93.5
[7], 100 nM | 50.2
[8], 100 nM | 29.2
[9], 100 nM | 114
[10], 10 nM | 94
[11], 10 nM | 118
[12], 10 nM | 81
[13], 100 nM | 33.4
[14], 100 nM | 35.3
[15], 100 nM | 32.9
[16], 100 nM | 37.3
[17], 10 nM | 98.4
[18], 100 nM | 61.2
[19], 100 nM | 16.5
[20], 100 nM | 72.7

CO[C@H]1C[C@@H]2CC[C@@H](C)[C@@](O)(O2)C(=O)C(=O)N2CCCC[C@H]2C(=O)O[C@H]([C@H](C)C[C@@H]2CC[C@@H](OC(=O)C(C)(CO)CO)[C@H](OC)C2)CC(=O)[C@H](C)/C=C(\C)[C@@H](O)[C@@H](OC)C(=O)[C@H](C)C[C@H](C)/C=C/C=C/C=C/1C [Temsirolimus]
Settings | normalised viability [%]
[1], 0.3 nM | 74.3
[1], 3 nM | 45.9
[1], 10 nM | 39.4
[2], 1 nM | 70.6
[2], 100 nM | 46.5
[2], 1000 nM | 42.7
[3], 1 nM | 89.8
[4], 10 nM | 85.8
[5], 10 nM | 68.3
[6], 1 nM | 90.9
[7], 10 nM | 50.2
[8], 10 nM | 49.8
[9], 10 nM | 68
[10], 1 nM | 54.5
[11], 1 nM | 73.9
[12], 1 nM | 32
[13], 10 nM | 77.1
[14], 10 nM | 69.3
[15], 10 nM | 68.2
[16], 10 nM | 56.5
[17], 1 nM | 65.7
[18], 10 nM | 90.8
[19], 10 nM | 50.5
[20], 10 nM | 55.8

C[C@]1(c2nc3c(C(N)=O)cccc3[nH]2)CCCN1 [Veliparib]
Settings | normalised viability [%]
[1], 3 nM | 89.3
[1], 30 nM | 86.4
[1], 100 nM | 85.6
[2], 10 nM | 81.7
[2], 1000 nM | 77
[2], 10000 nM | 70.2
[3], 10 nM | 98.2
[4], 100 nM | 84.1
[5], 100 nM | 97.6
[6], 10 nM | 103
[7], 100 nM | 76.7
[8], 100 nM | 89.9
[9], 100 nM | 92.3
[10], 10 nM | 89.1
[11], 10 nM | 113
[12], 10 nM | 99.4
[13], 100 nM | 75.6
[14], 100 nM | 101
[15], 100 nM | 104
[16], 100 nM | 85.4
[17], 10 nM | 90.8
[18], 100 nM | 116
[19], 100 nM | 72.5
[20], 100 nM | 74.8

CC[C@]1(O)C[C@@H]2CN(CCc3c([nH]c4ccccc34)[C@@](C(=O)OC)(c3cc4c(cc3OC)N(C)[C@H]3[C@@](O)(C(=O)OC)[C@H](OC(C)=O)[C@]5(CC)C=CCN6CC[C@]43[C@@H]65)C2)C1 [Vinblastine]
Settings | normalised viability [%]
[1], 0.3 nM | 76.8
[1], 3 nM | 78.8
[1], 10 nM | 79
[2], 1 nM | 35.4
[2], 100 nM | 18.5
[2], 1000 nM | 20.1
[3], 1 nM | 102
[4], 10 nM | 51.5
[5], 10 nM | 39.3
[6], 1 nM | 106
[7], 10 nM | 14.7
[8], 10 nM | 76.7
[9], 10 nM | 20.1
[10], 1 nM | 107
[11], 1 nM | 114
[12], 1 nM | 98.4
[13], 10 nM | 40.6
[14], 10 nM | 49.7
[15], 10 nM | 26.3
[16], 10 nM | 20.6
[17], 1 nM | 101
[18], 10 nM | 107
[19], 10 nM | 13
[20], 10 nM | 19.1
